Experimental data published in patent publication US7902175B2, “Aminopropanol derivatives” (Novartis AG, priority 2003, dated 2011).

Legend:
S1P-4 = biological target: T1, S1P-4 (Homo sapiens, UniProt O95977); experiment: GTPγS binding assay using S1P receptor/HEK293 membrane preparations; assay type: biochemical; conditions: for EC50: GTPγS binding, transiently transfected HEK293 membranes
T1 construct: expressed in transfected cells; host or cells: HEK293 (transient, calcium phosphate); crude membranes
T1 sequence (O95977 1-384): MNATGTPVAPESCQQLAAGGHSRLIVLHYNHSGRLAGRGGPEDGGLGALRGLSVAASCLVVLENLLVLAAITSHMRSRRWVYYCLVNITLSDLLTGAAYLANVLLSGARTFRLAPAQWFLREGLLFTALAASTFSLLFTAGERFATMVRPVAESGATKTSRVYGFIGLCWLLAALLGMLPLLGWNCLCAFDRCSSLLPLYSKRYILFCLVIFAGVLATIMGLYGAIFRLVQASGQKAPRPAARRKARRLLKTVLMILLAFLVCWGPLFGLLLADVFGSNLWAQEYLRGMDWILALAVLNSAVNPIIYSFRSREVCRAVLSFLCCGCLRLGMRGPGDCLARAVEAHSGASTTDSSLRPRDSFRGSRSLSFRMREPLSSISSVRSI
Excerpt: (§1) The compounds of the invention have binding affinity to individual human S1P receptors as determined in following assays:
(§2) Transient Transfection of Human S1P Receptors into HEK293 Cells
(§3) S1P receptors and Gi proteins are cloned, and equal amounts of 4 cDNAs for the S1P receptor, Gi-α, Gi-β and Gi-γ are mixed and used to transfect monolayers of HEK293 cells using the calcium phosphate precipitate method (M. Wigler et al., Cell. 1977; 11; 223 and DS. Im et al., Mol. Pharmacol. 2000; 57; 753). Briefly, a DNA mixture containing 25 μg of DNA and 0.25 M CaCl is added to HEPES-buffered 2 mM Na2HPO4. Subconfluent monolayers of HEK293 cells are poisoned with 25 […], and the DNA precipitate is then applied to the cells. After 4 h, the monolayers are washed with phosphate-buffered saline and refed media (90% 1:1 Dulbecco's modified essential media (DMEM):F-12+10% fetal bovine serum). The cells are harvested 48-72 h after addition of the DNA by scraping in HME buffer (in mM: 20 HEPES, 5 MgCl2, 1 EDTA, pH 7.4) containing 10% sucrose on ice, and disrupted using a Dounce homogenizer. After centrifugation at 800×g, the supernatant is diluted with HME without sucrose and centrifuged at 100,000×g for 1 h. The resulting pellet is rehomogenized and centrifuged a second hour at 100,000×g. This crude membrane pellet is resuspended in HME with sucrose, aliquoted, and snap-frozen by immersion in liquid nitrogen. The membranes are stored at […] Protein concentration is determined spectroscopically by Bradford protein assay.
(§4) GTPγS Binding Assay Using S1P Receptor/HEK293 Membrane Preparations
(§5) GTPγS binding experiments are performed as described by D S. Im et al., Mol. Pharmacol. 2000; 57:753. Ligand-mediated GTPγS binding to G-proteins is measured in GTP binding buffer (in mM: 50 HEPES, 100 NaCl, 10 MgCl2, pH 7.5) using 25 μg of a membrane preparation from transiently transfected HEK293 cells. Ligand is added to membranes in the presence of 10 μM GDP and 0.1 nM [^35S]GTPγS (1200 Ci/mmol) and incubated at 30° C. for 30 min. Bound GTPγS is separated from unbound using the Brandel harvester (Gaithersburg, Md.) and counted with a liquid scintillation counter.

human S1P receptors = experiment: GTPγS binding assay, S1P receptors in general; assay type: biochemical
Excerpt: as §1, §2
S1P receptors and Gi proteins are cloned, and equal amounts of 4 cDNAs for the S1P receptor, Gi-α, Gi-β and Gi-γ are mixed and used to transfect monolayers of HEK293 cells using the calcium phosphate precipitate method (M. Wigler et al., Cell. 1977; 11; 223 and DS. Im et al., Mol. Pharmacol. 2000; 57; 753). Briefly, a DNA mixture containing 25 μg of DNA and 0.25 M CaCl is added to HEPES-buffered 2 mM Na2HPO4. Subconfluent monolayers of HEK293 cells are poisoned with 25 […], and the DNA precipitate is then applied to the cells. […] Protein concentration is determined spectroscopically by Bradford protein assay. […]
as §5, with “Ligand is added to membranes in the presence of 10 μM GDP and 0.1 nM [^35S]GTPγS (1200 Ci/mmol) and incubated at 30° C. for 30 min.” left out

S1P-1 = biological target: T2, S1P-1 (Homo sapiens, UniProt P21453); experiment: GTPγS binding assay using S1P receptor/HEK293 membrane preparations; assay type: biochemical
T2 construct: expressed in transfected cells; host or cells: HEK293 (transient, calcium phosphate); crude membranes
T2 sequence (P21453 whole entry): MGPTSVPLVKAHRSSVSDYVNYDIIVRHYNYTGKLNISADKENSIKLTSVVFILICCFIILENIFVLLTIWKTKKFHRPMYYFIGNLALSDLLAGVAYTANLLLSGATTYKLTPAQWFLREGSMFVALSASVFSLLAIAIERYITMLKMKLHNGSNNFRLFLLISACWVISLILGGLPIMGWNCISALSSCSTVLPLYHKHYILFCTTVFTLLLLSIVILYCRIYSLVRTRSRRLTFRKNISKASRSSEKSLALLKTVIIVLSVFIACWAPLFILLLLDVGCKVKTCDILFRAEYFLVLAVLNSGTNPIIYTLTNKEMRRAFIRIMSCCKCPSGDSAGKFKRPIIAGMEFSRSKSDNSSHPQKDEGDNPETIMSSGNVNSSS
Experimental: as §2
as §3, with “Briefly,” for “S1P receptors and Gi proteins are cloned, and equal amounts of 4 cDNAs for the S1P receptor, Gi-α, Gi-β and Gi-γ are mixed and used to transfect monolayers of HEK293 cells using the calcium phosphate precipitate method (M. Wigler et al., Cell. 1977; 11; 223 and DS. Im et al., Mol. Pharmacol. 2000; 57; 753). Briefly,”
as §4
as §5, with “Ligand-mediated” for “GTPγS binding experiments are performed as described by D S. Im et al., Mol. Pharmacol. 2000; 57:753. Ligand-mediated”

S1P-5 = biological target: T3, S1P-5 (Homo sapiens, UniProt Q9H228); experiment: as above; assay type: biochemical
T3 construct: expressed in transfected cells; host or cells: HEK293 (transient, calcium phosphate); crude membranes
T3 sequence (Q9H228 whole entry): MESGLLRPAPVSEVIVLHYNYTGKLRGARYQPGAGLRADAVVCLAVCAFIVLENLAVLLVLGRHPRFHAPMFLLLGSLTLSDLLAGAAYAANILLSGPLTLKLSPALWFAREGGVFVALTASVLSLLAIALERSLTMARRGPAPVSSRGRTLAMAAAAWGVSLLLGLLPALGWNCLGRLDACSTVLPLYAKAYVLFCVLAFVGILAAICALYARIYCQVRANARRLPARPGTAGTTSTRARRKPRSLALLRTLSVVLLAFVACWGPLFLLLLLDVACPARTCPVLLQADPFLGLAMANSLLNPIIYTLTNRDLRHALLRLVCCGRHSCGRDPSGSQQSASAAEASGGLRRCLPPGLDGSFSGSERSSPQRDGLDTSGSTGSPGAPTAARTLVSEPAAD
Experimental: as §2
as §3, with “Briefly,” for “S1P receptors and Gi proteins are cloned, and equal amounts of 4 cDNAs for the S1P receptor, Gi-α, Gi-β and Gi-γ are mixed and used to transfect monolayers of HEK293 cells using the calcium phosphate precipitate method (M. Wigler et al., Cell. 1977; 11; 223 and DS. Im et al., Mol. Pharmacol. 2000; 57; 753). Briefly,”
as §4
as §5, with “Ligand-mediated” for “GTPγS binding experiments are performed as described by D S. Im et al., Mol. Pharmacol. 2000; 57:753. Ligand-mediated”

S1P-3 = biological target: T4, S1P-3 (Homo sapiens, UniProt Q99500); experiment: as above; assay type: biochemical
T4 construct: expressed in transfected cells; host or cells: HEK293 (transient, calcium phosphate); crude membranes
T4 sequence (Q99500 whole entry): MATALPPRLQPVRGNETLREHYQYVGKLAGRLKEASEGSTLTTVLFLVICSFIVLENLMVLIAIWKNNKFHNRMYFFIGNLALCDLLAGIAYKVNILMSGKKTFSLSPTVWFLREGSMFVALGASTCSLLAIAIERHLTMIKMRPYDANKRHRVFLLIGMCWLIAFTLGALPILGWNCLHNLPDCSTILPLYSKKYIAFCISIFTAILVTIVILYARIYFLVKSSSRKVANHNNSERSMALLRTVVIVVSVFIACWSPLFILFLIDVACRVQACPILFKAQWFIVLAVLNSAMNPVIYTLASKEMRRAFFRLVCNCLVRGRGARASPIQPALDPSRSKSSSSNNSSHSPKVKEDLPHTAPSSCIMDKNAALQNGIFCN
Experimental: as §2, §3, §4, §5

S1P-2 = biological target: T5, S1P-2 (Homo sapiens, UniProt O95136); experiment: as above; assay type: biochemical; conditions: transiently transfected HEK293 membranes
T5 construct: expressed in transfected cells; host or cells: HEK293 (transient, calcium phosphate); crude membranes
T5 sequence (O95136 whole entry): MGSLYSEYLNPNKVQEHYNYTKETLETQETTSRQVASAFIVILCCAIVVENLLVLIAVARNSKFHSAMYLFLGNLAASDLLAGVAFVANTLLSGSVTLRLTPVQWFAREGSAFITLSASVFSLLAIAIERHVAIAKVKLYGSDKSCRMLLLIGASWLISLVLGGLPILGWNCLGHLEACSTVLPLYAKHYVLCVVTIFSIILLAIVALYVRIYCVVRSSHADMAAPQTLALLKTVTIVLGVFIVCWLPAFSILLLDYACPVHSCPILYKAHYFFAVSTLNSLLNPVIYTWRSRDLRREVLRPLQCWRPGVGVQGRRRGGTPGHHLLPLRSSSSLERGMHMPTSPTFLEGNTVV
Experimental: as §2, §3, §4, §5

[1] = Chiral HPLC determination of FTY720-phosphate enantiomers in blood after dosing 14C-labeled FTY720; assay type: in vivo; conditions: rats, orally 7.5 mg/kg or intravenous infusion 4 mg/kg; blood e.g. 3 or 72 hours after dosing
Excerpt: In a further aspect, the present invention provides a method of determining the amount of the R and/or S isomers of a compound of formula II present in a sample, comprising (a) reacting the compound of formula II present in the sample with benzene-1,2-dicarbaldehyde to form a compound of formula I, and separating the R and S isomers of the compound of formula I by HPLC. The HPLC is preferably performed as described above, using a chiral ion-exchange phase e.g. based on quinine carbamate or quinidine carbamate. The compounds of formula I are useful as intermediates in such a method. The sample may be e.g. a sample derived from a bodily fluid e.g. blood, plasma, saliva, or urine, and may be first subjected to one or more separation steps, (e.g. extraction with methanol and/or non-chiral HPLC) in order to separate the compound of formula II from the fluid. By such a method the amount of the active R or S enantiomer in the sample may be determined. […]
For example, achiral 14C-labeled FTY720 is administered to rats either orally (7.5 mg/kg) or by intravenous infusion (4 mg/kg). […] The derivative is spiked with unlabelled OPA-derivatized R and S FTY720-phosphate as retention time markers (monitored by UV at 215 nm) and subjected to chiral HPLC separation using a ProntoSIL Chiral AX QN-1 column.

[2] = GTPγS binding, transiently transfected HEK293 membranes

In the case of CCCCCCCCc1ccc(CCC(N)(CO)COP(=O)(O)O)cc1 (single isomer, unassigned) [(R)-FTY720-P, phosphoric acid mono-[2-amino-2-hydroxymethyl-4-(4-octyl-phenyl)-butyl]ester], the EC50 (S1P-4) is reported as 80.1 nM and the “agonistic effects on S1P receptors” value (human S1P receptors) is reported as “only at very high concentrations”.
For CCCCCCCCc1ccc(CCC(N)(CO)COP(=O)(O)O)cc1 (single isomer, unassigned) [(S)-FTY720-P, phosphoric acid mono-[2-amino-2-hydroxymethyl-4-(4-octyl-phenyl)-butyl]ester], the “agonist character on S1P1” value (S1P-1; in the low nanomolar range) was “full agonist”, the “agonist character on S1P5” value (S1P-5; in the low nanomolar range) was “partial agonist” and the “agonist character on S1P3” value (S1P-3; in the low nanomolar range) was “full agonist”. The EC50 (S1P-4) was 0.75 nM and the “agonist character on S1P4” value (S1P-4; in the low nanomolar range) was “partial agonist”.
N[C@@](CO)(CCc1ccc(OCCc2ccc(C(F)(F)F)cc2)cc1)COP(=O)(O)O [Ex. 14, Phosphoric Acid mono-((R)-2-amino-2-hydroxymethyl-4-{4-[2-(4-trifluoromethyl-phenyl)-ethoxy]-phenyl}-butyl)ester] gave an EC50 (S1P-1; [2]) of 0.4 nM, an EC50 (S1P-5; [2]) of 7.7 nM and an EC50 (S1P-2) of over 10 µM. It also gave an EC50 (S1P-3; [2]) of 140 nM and an EC50 (S1P-4) of 6.6 nM.
For CCCCCCCCc1ccc(CCC(N)(CO)CO)cc1 [FTY720, 2-amino-2-[2-(4-octylphenyl)ethyl]propane-1,3-diol], the “R-enantiomer of [14C]FTY720-phosphate in blood” value [1] was “not detectable” and the “enantiomer of the metabolite [14C]FTY720-phosphate in all blood samples” value [1] was “exclusively the pharmacologically active S-enantiomer”.
